Data from patent publication US12077503B2, “Substituted cyclic amides and their use as herbicides” (FMC CORPORATION, priority 2015, dated 2024).

Tests used:
Type in all cases: in vivo
[1] = tested on: redroot pigweed (Amaranthus retroflexus); experiment: Test G Pre-Emergence Protocol; details: Amaranthus retroflexus, pre-emergence, 312 h, evaluated after 13 days
How it was run: (§1)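 Under a 24/16° C day/night regime with 14 h light and 65% humidity, sown pots were sprayed after one day with compound (15.625, 62.5 or 250 g/ha; 50:50 acetone/water, 0.5% Tween 20). Damage was assessed visually 13 days later, 0 to 100.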

[2] = tested on: ivy-leaved morning glory (Ipomoea hederacea); experiment: Test G Pre-Emergence Protocol; details: Ipomoea, pre-emergence, 312 h, evaluated after 13 days
How it was run: as §1

[3] = tested on: giant foxtail (Setaria faberi); experiment: Test G Pre-Emergence Protocol; details: Setaria faberi, pre-emergence, 312 h, evaluated after 13 days
How it was run: as §1

[4] = tested on: velvetleaf (Abutilon theophrasti); experiment: Test G Pre-Emergence Protocol; details: Abutilon theophrasti, pre-emergence, 312 h, evaluated after 13 days
How it was run: as §1

[5] = tested on: corn (Zea mays); experiment: Test G Pre-Emergence Protocol; details: Zea mays, pre-emergence, 312 h, evaluated after 13 days
How it was run: as §1

[6] = tested on: barnyardgrass (Echinochloa crus-galli); experiment: Test G Pre-Emergence Protocol; details: Echinochloa crus-galli, pre-emergence, 312 h, evaluated after 13 days
How it was run: as §1

[7] = tested on: redroot pigweed (Amaranthus retroflexus); experiment: Test G Post-Emergence Protocol; details: Amaranthus retroflexus, post-emergence, 312 h, read-out: Pigweed, Redroot damage rating
How it was run: (§2)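 Eight days post-sowing, plants received a spray of test compound (acetone/water 50:50, 0.5% Tween 20) at 15.625, 62.5 or 250 g/ha. Glasshouse regime thereafter: 24/16 °C, 14 h light, 65% humidity. Assessment after 13 days on a 0–100 damage scale.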

[8] = tested on: ivy-leaved morning glory (Ipomoea hederacea); experiment: Test G Post-Emergence Protocol; details: Ipomoea, post-emergence, 312 h, read-out: Morningglory, Ivy-leaved damage rating
How it was run: as §2

[9] = tested on: giant foxtail (Setaria faberi); experiment: Test G Post-Emergence Protocol; details: Setaria faberi, post-emergence, 312 h, read-out: Foxtail, Giant damage rating
How it was run: as §2

[10] = tested on: velvetleaf (Abutilon theophrasti); experiment: Test G Post-Emergence Protocol; details: Abutilon theophrasti, post-emergence, 312 h, read-out: Velvetleaf damage rating
How it was run: as §2

[11] = tested on: corn (Zea mays); experiment: Test G Post-Emergence Protocol; details: Zea mays, post-emergence, 312 h, read-out: Corn damage rating
How it was run: as §2

[12] = tested on: barnyardgrass (Echinochloa crus-galli); experiment: Test G Post-Emergence Protocol; details: Echinochloa crus-galli, post-emergence, 312 h, read-out: Barnyardgrass damage rating
How it was run: as §2

[13] = 15.625 g ai/ha, evaluated after 13 days (100=total damage to plant; 0=no damage to plant)
[14] = 62.5 g ai/ha, evaluated after 13 days, 100=total damage to plant, 0=no damage to plant
[15] = 250 g ai/ha, evaluated after 13 days, 100=total damage to plant, 0=no damage to plant

COc1cc(C2CN(C)C(=O)C2C(=O)Nc2cccc(F)c2F)cc(C)c1C (stereo not drawn) [Compound 1713]
pest or weed control at 15.625 g/ha ([1]; 15.625 g ai/ha, read-out: Pigweed, Redroot damage rating (100=total damage to plant; 0=no damage to plant)): 0% | pest or weed control at 62.5 g/ha ([1]; 62.5 g ai/ha, 100=total damage to plant, 0=no damage to plant, read-out: Pigweed, Redroot damage rating): 0% | pest or weed control at 250 g/ha ([1]; 250 g ai/ha, read-out: Pigweed, Redroot damage rating (100=total damage to plant; 0=no damage to plant)): 0% | pest or weed control at 15.625 g/ha ([2]; 15.625 g ai/ha, read-out: Morningglory, Ivy-leaved damage rating (100=total damage to plant; 0=no damage to plant)): 0% | pest or weed control at 62.5 g/ha ([2]; 62.5 g ai/ha, 100=total damage to plant, 0=no damage to plant, read-out: Morningglory, Ivy-leaved damage rating): 0% | pest or weed control at 250 g/ha ([2]; 250 g ai/ha, read-out: Morningglory, Ivy-leaved damage rating (100=total damage to plant; 0=no damage to plant)): 0% | pest or weed control at 15.625 g/ha ([3]; 15.625 g ai/ha, read-out: Foxtail, Giant damage rating (100=total damage to plant; 0=no damage to plant)): 50% | pest or weed control at 62.5 g/ha ([3]; 62.5 g ai/ha, 100=total damage to plant, 0=no damage to plant, read-out: Foxtail, Giant damage rating): 70% | pest or weed control at 250 g/ha ([3]; 250 g ai/ha, read-out: Foxtail, Giant damage rating (100=total damage to plant; 0=no damage to plant)): 90% | pest or weed control at 15.625 g/ha ([4]; 15.625 g ai/ha, read-out: Velvetleaf damage rating (100=total damage to plant; 0=no damage to plant)): 0% | pest or weed control at 62.5 g/ha ([4]; 62.5 g ai/ha, 100=total damage to plant, 0=no damage to plant, read-out: Velvetleaf damage rating): 0% | pest or weed control at 250 g/ha ([4]; 250 g ai/ha, read-out: Velvetleaf damage rating (100=total damage to plant; 0=no damage to plant)): 0% | plant injury at 15.625 g/ha ([5]; 15.625 g ai/ha, read-out: Corn damage rating (100=total damage to plant; 0=no damage to plant)): 10% | plant injury at 62.5 g/ha ([5]; 62.5 g ai/ha, 100=total damage to plant, 0=no damage to plant, read-out: Corn damage rating): 20% | plant injury at 250 g/ha ([5]; 250 g ai/ha, read-out: Corn damage rating (100=total damage to plant; 0=no damage to plant)): 90% | pest or weed control at 15.625 g/ha ([6]; 15.625 g ai/ha, read-out: Barnyardgrass damage rating (100=total damage to plant; 0=no damage to plant)): 30% | pest or weed control at 62.5 g/ha ([6]; 62.5 g ai/ha, 100=total damage to plant, 0=no damage to plant, read-out: Barnyardgrass damage rating): 70% | pest or weed control at 250 g/ha ([6]; 250 g ai/ha, read-out: Barnyardgrass damage rating (100=total damage to plant; 0=no damage to plant)): 90% | pest or weed control at 15.625 g/ha [7, 13]: 0% | pest or weed control at 62.5 g/ha [7, 14]: 0% | pest or weed control at 250 g/ha [7, 15]: 0% | pest or weed control at 15.625 g/ha [8, 13]: 20% | pest or weed control at 62.5 g/ha [8, 14]: 60% | pest or weed control at 250 g/ha [8, 15]: 70% | pest or weed control at 15.625 g/ha [9, 13]: 60% | pest or weed control at 62.5 g/ha [9, 14]: 80% | pest or weed control at 250 g/ha [9, 15]: 80% | pest or weed control at 15.625 g/ha [10, 13]: 0% | pest or weed control at 62.5 g/ha [10, 14]: 0% | pest or weed control at 250 g/ha [10, 15]: 20% | plant injury at 15.625 g/ha [11, 13]: 0% | plant injury at 62.5 g/ha [11, 14]: 50% | plant injury at 250 g/ha [11, 15]: 80% | pest or weed control at 15.625 g/ha [12, 13]: 10% | pest or weed control at 62.5 g/ha [12, 14]: 80% | pest or weed control at 250 g/ha [12, 15]: 80%
